Assay results from patent publication US9522888B2, “Substituted bicyclic compounds” (BRISTOL-MYERS SQUIBB COMPANY, priority 2014, dated 2016).

What was measured:
[1] = biological target: hS1P1/CHO cells (Homo sapiens (Human), UniProt P21453); experiment: hS1P1 ERK phosphorylation (S1P1 pERK); format: cell-based; conditions: phosphate examples
How it was run: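 CHO cells expressing human S1P1, serum-starved 2 h, exposed to compound in HBSS/20 mM HEPES for 7 min at 37° C. Lysates assayed for phospho-ERK by SureFire kit; response given as % activation relative to 10 μM S1P.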

[2] = biological target: S1P3 (membranes prepared from EDG3-Gal5-bla HEK293T cells) (Homo sapiens (Human), UniProt Q99500); experiment: Receptor [35S] GTPγS binding assay (S1P3 GTPγS); format: biochemical; conditions: phosphate examples; read-out: S1P3 GTPγS
S1P3 (membranes prepared from EDG3-Gal5-bla HEK293T cells), sequence (Q99500 whole entry): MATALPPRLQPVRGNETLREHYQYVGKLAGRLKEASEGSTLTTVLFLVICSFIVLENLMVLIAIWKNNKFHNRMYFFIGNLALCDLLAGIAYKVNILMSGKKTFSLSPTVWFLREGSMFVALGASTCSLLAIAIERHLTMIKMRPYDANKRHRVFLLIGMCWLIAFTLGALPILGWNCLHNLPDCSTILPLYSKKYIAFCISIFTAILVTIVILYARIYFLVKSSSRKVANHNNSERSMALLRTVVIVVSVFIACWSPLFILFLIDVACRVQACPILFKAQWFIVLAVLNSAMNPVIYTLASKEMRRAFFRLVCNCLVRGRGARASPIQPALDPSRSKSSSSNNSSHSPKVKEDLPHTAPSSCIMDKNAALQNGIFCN
How it was run: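 Membranes (3 μg protein/well) from S1P1/CHO cells or EDG3-Gal5-bla HEK293T cells (S1P3) were incubated 45 min at room temperature with 0.2 nM final [35S]GTPγS in HEPES pH 7.5 buffer with 10 μM GDP, MgCl2 and saponin. Bound label counted after filtration; EC50 from 11-point, 3-fold dilutions.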

[3] = biological target: S1P1 (membranes prepared from S1P1/CHO cells) (Homo sapiens (Human), UniProt P21453); experiment: Receptor [35S] GTPγS binding assay (S1P1 GTPγS); format: biochemical; conditions: phosphate examples; read-out: S1P1 GTPγS
S1P1 (membranes prepared from S1P1/CHO cells), sequence (P21453 whole entry): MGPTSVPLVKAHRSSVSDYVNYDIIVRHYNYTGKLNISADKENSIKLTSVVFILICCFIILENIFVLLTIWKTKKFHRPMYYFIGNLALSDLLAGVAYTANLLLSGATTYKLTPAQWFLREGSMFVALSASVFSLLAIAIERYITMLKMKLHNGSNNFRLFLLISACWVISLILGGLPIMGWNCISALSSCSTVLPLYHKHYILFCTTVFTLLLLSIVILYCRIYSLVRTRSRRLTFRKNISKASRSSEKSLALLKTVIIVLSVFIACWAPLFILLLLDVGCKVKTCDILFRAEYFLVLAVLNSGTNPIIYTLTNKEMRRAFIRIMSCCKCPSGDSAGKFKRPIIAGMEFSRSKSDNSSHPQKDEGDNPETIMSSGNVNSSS
How it was run: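 Membranes from S1P1-expressing CHO cells (3 μg protein/well) incubated with compound (11-point, 3-fold dilution) and 0.2 nM final [35S]GTPγS, 45 min at room temperature. Assay buffer: 20 mM HEPES pH 7.5, 10 mM MgCl2, 150 mM NaCl, 10 μM GDP, 0.1% fatty-acid-free BSA, 10 μg/ml saponin. Filter-bound radioactivity counted by scintillation; EC50 derived.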

[4] = biological target: human S1P1 (Homo sapiens (Human), UniProt P21453); experiment: S1P1 binding assay (33P-S1P radioligand competition, CHO cell membranes); conditions: phosphate examples; read-out: S1P1 Binding
human S1P1, sequence (P21453 whole entry): as above
How it was run: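 Radioligand is 33P-S1P, competing for membranes from human S1P1-expressing CHO cells. Membranes resuspended in 50 mM HEPES pH 7.5, 100 mM NaCl, 1 mM MgCl2, 2 mM EDTA.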

hS1P1/CHO cells, sequence (P21453 whole entry): as above

Row | SMILES | EC50 [1] | EC50 [2] | EC50 [3] | IC50 [4]
1 | CCCCCO[C@H]1CCc2cc([C@@H]3CC[C@](N)(COP(=O)(O)O)C3)ccc2C1 [compound 434] | < 10 nM | > 625 nM | 10 to 100 nM | < 10 nM
2 | CCC/C=C\CO[C@H]1CCc2cc([C@H]3CC[C@](N)(COP(=O)(O)O)C3)ccc2C1 [compound 437] | < 10 nM | > 625 nM | < 10 nM | < 10 nM
3 | COCCCC[C@H]1CCc2cc([C@@H]3CC[C@@](N)(COP(=O)(O)O)C3)ccc2C1 [compound 596] | < 10 nM | > 625 nM | 10 to 100 nM | < 10 nM
4 | CCCCCC[C@@H]1Cc2ccc([C@H]3CC[C@](N)(COP(=O)(O)O)C3)cc2CO1 [compound 427] | < 10 nM | > 625 nM | < 10 nM | 10 to 100 nM
5 | Cc1ccccc1OC[C@H]1CCc2cc([C@H]3CC[C@](N)(COP(=O)(O)O)C3)ccc2C1 [compound 468] | 10 to 100 nM | > 625 nM | 10 to 100 nM | < 10 nM
6 | CCCC[C@@H]1CCCC2(CCc3cc([C@H]4CC[C@](N)(COP(=O)(O)O)C4)ccc3C2)O1 (stereo partly shown) [compound 633] | < 10 nM | > 625 nM | 100 to 1000 nM | 10 to 100 nM
7 | C=CCCCC[C@@H]1CCc2cc([C@H]3CC[C@](N)(COP(=O)(O)O)C3)ccc2C1 [compound 555] | 10 to 100 nM | > 625 nM | 10 to 100 nM | < 10 nM
8 | N[C@]1(COP(=O)(O)O)CC[C@H](c2ccc3c(c2)CC[C@H](Cc2ccccc2)C3)C1 [compound 572] | 10 to 100 nM | > 625 nM | < 10 nM | < 10 nM
9 | CCCCC=C[C@H]1CCc2cc([C@H]3CC[C@](N)(COP(=O)(O)O)C3)ccc2C1 [compound 648] | 10 to 100 nM | > 625 nM | 10 to 100 nM | 10 to 100 nM
10 | CCCCCOC[C@H]1CCc2cc([C@H]3CC[C@](N)(COP(=O)(O)O)C3)ccc2C1 [compound 448] | < 10 nM | > 625 nM | < 10 nM | < 10 nM
11 | COCc1cccc(C[C@@H]2CCc3cc([C@H]4CC[C@](N)(COP(=O)(O)O)C4)ccc3C2)c1 [compound 552] | 10 to 100 nM | > 625 nM | 10 to 100 nM | < 10 nM
12 | COc1ccc(F)c(CC[C@H]2CCc3cc([C@@H]4CC[C@@](N)(COP(=O)(O)O)C4)ccc3C2)c1 (single isomer, unassigned) [compound 609] | < 10 nM | > 625 nM | 10 to 100 nM | 10 to 100 nM

Further lines, results first:

Row | EC50 [1] | EC50 [2] | EC50 [3] | IC50 [4] | SMILES
13 | < 10 nM | > 625 nM | 10 to 100 nM | 10 to 100 nM | CCCCCC1CCc2cc([C@H]3CC[C@](N)(COP(=O)(O)O)C3)ccc2C1 (stereo partly shown) [compound 575]
14 | < 10 nM | > 625 nM | 100 to 1000 nM | 10 to 100 nM | CCCCCO[C@H]1CCc2cc([C@H]3CC[C@](N)(COP(=O)(O)O)C3)ccc2C1 [compound 431]
15 | < 10 nM | > 625 nM | < 10 nM | < 10 nM | COc1cccc(COC[C@H]2CCc3cc([C@H]4CC[C@](N)(COP(=O)(O)O)C4)ccc3C2)c1 [compound 481]
16 | 10 to 100 nM | > 625 nM | 10 to 100 nM | 10 to 100 nM | N[C@]1(COP(=O)(O)O)CC[C@H](c2ccc3c(c2)CC[C@@H](Cc2ccccc2)C3)C1 [compound 571]
17 | < 10 nM | > 625 nM | 10 to 100 nM | 10 to 100 nM | COc1cccc(OCC[C@H]2CCc3cc([C@H]4CC[C@](N)(COP(=O)(O)O)C4)ccc3C2)c1 [compound 545]
18 | < 10 nM | > 625 nM | < 10 nM | < 10 nM | N[C@@]1(COP(=O)(O)O)CC[C@@H](c2ccc3c(c2)CC[C@@H](CCc2ccc4ccccc4n2)C3)C1 [compound 605]
19 | < 10 nM | > 625 nM | < 10 nM | < 10 nM | COC(C)CCCCC1CCc2cc([C@H]3CC[C@](N)(COP(=O)(O)O)C3)ccc2C1 (single isomer, unassigned) [compound 611]
